Experimental data as given in PMC7827406, “Structure–Activity Relationship (SAR) Study of Spautin-1 to Entail the Discovery of Novel NEK4 Inhibitors” (International Journal of Molecular Sciences, 2021).
Where two headings read alike, the source gives them in different places.

What was measured:
Assay in all cases: biochemical
Parameters in all cases: Eurofins KinaseProfiler full panel at Km ATP, residual kinase activity (%) relative to DMSO
CHK2(I157T)(h) = biological target: T1, CHK2(I157T)(h) (Homo sapiens, UniProt O96017, I157T)
T1 construct: gene CHEK2
T1 sequence (O96017 whole entry I157T): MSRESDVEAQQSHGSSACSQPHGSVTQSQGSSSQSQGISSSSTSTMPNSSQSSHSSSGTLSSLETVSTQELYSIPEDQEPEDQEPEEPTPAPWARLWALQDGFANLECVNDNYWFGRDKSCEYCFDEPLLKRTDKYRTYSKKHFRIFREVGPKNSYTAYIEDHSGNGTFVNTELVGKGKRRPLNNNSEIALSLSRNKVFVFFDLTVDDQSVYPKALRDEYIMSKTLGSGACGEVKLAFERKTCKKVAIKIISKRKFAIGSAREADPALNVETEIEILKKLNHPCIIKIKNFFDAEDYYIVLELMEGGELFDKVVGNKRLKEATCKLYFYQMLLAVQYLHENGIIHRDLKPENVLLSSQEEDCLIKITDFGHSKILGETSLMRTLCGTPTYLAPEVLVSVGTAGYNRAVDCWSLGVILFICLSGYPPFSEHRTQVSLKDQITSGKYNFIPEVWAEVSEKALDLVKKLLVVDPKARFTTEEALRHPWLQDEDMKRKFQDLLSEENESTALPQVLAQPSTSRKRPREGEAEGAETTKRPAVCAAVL
How it was run: (§1)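 Radiometric kinase activity assays were run with ATP at Km and compounds at 10 µM, and remaining activity (%) was reported. A separate competitive binding screen measured DNA-tagged kinase displaced from immobilized active-site ligands by qPCR, giving percent kinase still bound at 10 µM compound in DMSO.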

DAPK1(h) = DAPK1(h) (Homo sapiens, UniProt P53355)
Sequence of DAPK1(h) (P53355 whole entry): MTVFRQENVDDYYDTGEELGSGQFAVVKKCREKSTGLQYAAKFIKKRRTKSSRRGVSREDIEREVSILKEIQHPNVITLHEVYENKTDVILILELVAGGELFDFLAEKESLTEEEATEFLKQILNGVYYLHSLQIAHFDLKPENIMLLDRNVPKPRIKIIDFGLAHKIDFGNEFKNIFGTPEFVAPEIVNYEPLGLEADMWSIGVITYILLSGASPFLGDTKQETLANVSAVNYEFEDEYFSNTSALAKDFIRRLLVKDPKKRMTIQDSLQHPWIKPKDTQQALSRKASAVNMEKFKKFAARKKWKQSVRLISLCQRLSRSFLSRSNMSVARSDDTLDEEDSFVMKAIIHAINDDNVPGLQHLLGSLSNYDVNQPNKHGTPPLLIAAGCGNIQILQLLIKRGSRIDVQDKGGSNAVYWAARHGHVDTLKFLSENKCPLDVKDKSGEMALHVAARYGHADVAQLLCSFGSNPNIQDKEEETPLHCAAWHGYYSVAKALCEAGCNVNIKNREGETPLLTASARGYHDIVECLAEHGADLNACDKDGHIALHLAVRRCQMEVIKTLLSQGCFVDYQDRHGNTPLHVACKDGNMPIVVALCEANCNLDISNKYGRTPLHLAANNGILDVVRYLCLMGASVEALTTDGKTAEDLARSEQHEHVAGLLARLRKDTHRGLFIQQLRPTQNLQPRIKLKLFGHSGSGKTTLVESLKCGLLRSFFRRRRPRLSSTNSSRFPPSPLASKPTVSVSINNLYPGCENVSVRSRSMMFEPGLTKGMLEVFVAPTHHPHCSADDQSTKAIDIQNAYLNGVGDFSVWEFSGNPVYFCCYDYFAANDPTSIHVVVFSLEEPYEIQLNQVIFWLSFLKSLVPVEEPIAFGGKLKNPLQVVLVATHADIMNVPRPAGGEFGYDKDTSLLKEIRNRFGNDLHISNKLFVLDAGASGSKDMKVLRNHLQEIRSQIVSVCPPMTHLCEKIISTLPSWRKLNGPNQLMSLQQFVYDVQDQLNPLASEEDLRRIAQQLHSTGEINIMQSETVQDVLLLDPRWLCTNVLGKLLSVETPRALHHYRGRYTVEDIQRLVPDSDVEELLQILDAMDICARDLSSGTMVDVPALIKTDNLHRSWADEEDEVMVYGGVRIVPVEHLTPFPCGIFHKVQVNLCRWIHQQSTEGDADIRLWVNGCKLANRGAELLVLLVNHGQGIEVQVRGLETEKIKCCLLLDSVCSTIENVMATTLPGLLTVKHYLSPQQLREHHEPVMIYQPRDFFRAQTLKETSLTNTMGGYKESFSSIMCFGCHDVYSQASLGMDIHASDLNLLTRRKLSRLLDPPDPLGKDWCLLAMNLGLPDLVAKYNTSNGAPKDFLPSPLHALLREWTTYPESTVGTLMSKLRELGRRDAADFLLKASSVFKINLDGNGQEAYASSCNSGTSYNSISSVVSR
How it was run: as §1

JNK3(h) = biological target: T2, JNK3(h) (Homo sapiens, UniProt P53779)
T2 construct: gene MAPK10
T2 sequence (P53779 whole entry): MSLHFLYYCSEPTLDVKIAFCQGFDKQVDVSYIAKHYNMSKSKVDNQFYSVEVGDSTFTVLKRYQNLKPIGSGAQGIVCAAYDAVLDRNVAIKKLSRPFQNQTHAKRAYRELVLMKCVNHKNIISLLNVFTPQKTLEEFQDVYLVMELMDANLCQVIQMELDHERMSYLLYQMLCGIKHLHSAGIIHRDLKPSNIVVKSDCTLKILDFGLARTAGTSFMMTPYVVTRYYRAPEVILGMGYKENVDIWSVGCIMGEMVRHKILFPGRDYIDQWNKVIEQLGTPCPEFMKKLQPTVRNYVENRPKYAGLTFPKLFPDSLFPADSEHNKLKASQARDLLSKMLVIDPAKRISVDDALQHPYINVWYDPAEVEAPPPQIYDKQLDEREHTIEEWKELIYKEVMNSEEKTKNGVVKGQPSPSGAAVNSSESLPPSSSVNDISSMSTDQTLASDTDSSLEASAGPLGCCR
How it was run: as §1

MuSK(h) = biological target: T3, MuSK(h) (Homo sapiens, UniProt O15146)
T3 sequence (O15146 1-869): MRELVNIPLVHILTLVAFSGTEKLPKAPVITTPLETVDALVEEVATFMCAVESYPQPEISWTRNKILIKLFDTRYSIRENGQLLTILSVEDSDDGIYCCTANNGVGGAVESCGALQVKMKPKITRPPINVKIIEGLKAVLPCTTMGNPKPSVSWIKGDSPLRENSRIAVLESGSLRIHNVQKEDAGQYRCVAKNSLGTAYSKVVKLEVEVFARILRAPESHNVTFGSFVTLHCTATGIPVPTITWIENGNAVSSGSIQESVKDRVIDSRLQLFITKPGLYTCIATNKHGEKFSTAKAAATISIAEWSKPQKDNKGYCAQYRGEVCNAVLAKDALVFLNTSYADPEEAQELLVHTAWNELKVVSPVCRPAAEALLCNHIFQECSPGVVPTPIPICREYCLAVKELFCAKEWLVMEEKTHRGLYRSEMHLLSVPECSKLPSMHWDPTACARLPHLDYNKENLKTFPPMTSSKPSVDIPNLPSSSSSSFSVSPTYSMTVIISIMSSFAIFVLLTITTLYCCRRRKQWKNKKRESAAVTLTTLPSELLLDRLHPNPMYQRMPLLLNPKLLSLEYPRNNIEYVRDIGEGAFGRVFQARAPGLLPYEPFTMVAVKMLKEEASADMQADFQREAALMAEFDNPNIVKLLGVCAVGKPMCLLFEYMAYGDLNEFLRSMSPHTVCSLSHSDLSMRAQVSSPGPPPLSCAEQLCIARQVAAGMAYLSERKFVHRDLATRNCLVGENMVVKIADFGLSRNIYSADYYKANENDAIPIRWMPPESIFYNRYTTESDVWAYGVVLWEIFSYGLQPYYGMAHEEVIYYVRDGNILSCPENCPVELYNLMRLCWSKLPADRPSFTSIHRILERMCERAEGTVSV
How it was run: as §1

TAO2(h) = biological target: T4, TAO2(h) (Homo sapiens, UniProt Q9UL54)
T4 construct: gene TAOK2
T4 sequence (Q9UL54 1-1235): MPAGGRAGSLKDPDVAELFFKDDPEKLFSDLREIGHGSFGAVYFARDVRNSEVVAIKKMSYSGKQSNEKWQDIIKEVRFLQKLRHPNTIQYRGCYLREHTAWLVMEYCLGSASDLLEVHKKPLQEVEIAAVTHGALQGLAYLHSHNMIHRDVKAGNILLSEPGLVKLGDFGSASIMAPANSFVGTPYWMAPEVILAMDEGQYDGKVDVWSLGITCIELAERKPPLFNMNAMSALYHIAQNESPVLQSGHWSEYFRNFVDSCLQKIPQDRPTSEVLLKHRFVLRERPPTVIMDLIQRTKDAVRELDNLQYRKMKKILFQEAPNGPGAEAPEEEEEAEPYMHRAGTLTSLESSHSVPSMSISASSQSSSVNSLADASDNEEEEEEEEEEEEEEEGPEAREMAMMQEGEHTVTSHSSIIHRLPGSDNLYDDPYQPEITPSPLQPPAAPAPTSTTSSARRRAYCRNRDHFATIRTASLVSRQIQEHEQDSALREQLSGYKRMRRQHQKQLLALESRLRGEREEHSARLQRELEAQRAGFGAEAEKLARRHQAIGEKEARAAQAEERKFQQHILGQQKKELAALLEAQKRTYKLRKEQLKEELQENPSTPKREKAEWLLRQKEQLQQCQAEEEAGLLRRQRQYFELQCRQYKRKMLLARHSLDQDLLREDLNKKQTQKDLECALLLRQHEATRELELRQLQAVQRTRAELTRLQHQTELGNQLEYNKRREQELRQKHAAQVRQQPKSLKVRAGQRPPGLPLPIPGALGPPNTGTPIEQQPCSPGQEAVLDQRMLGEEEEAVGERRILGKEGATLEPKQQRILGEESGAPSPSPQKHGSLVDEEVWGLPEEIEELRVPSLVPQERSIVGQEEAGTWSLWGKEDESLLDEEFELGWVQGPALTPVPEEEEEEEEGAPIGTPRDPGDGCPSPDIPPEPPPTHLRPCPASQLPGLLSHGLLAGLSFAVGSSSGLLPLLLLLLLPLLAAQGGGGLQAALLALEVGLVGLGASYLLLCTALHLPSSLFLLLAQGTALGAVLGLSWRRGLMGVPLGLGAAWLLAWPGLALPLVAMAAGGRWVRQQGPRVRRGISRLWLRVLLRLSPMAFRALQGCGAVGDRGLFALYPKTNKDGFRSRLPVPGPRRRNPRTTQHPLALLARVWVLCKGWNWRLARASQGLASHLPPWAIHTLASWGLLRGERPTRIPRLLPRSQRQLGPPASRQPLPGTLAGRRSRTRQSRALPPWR
How it was run: as §1

[1] = read-out: Residual activity (%) 5at
[2] = read-out: Residual activity (%) 5as
[3] = read-out: Residual activity (%) 5ay
[4] = read-out: Residual activity (%) Spautin-1 5aa

Q: How did the remaining activity at 10 µM (CHK2(I157T)(h); [1]) turn out when `Fc1ccc2ncnc(NCCc3ccc(Cl)cc3)c2c1` [5at, N-[2-(4-Chlorophenyl)Ethyl]-6-Fluoro-4-Quinazolinamine] was run?
A: 99%

Q: What about the remaining activity at 10 µM (DAPK1(h); [1]) of the same molecule?
A: 89%

Q: And the remaining activity at 10 µM (JNK3(h); [1])?
A: 107%

Q: And the remaining activity at 10 µM (MuSK(h); [1])?
A: 97%

Q: And the remaining activity at 10 µM (TAO2(h); [1])?
A: 107%

Q: What does the source list for `Fc1ccc(CCNc2ncnc3ccc(F)cc23)cc1` [5as, 6-Fluoro-N-[2-(4-Fluorophenyl)Ethyl]-4-Quinazolinamine]?
A: remaining activity at 10 µM (CHK2(I157T)(h); [2]): 105%; remaining activity at 10 µM (DAPK1(h); [2]): 90%; remaining activity at 10 µM (JNK3(h); [2]): 98%; remaining activity at 10 µM (MuSK(h); [2]): 81%; remaining activity at 10 µM (TAO2(h); [2]): 109%

Q: Which results are given for `COc1ccc2ncnc(Nc3cccc(F)c3)c2c1` [5ay, N-(3-Fluorophenyl)-6-Methoxy-4-Quinazolinamine]?
A: remaining activity at 10 µM (CHK2(I157T)(h); [3]): 91%; remaining activity at 10 µM (DAPK1(h); [3]): 95%; remaining activity at 10 µM (JNK3(h); [3]): 90%; remaining activity at 10 µM (MuSK(h); [3]): 70%; remaining activity at 10 µM (TAO2(h); [3]): 112%

Q: Which remaining activity at 10 µM (CHK2(I157T)(h); [4]) does the source give for `Fc1ccc(CNc2ncnc3ccc(F)cc23)cc1` [5aa, 6-Fluoro-N-(4-fluorobenzyl)-4-Quinazolinamine] here?
A: 88%

Q: And the remaining activity at 10 µM (DAPK1(h); [4])?
A: 102%

Q: And the remaining activity at 10 µM (JNK3(h); [4])?
A: 90%

Q: And the remaining activity at 10 µM (MuSK(h); [4])?
A: 74%

Q: And the remaining activity at 10 µM (TAO2(h); [4])?
A: 110%
